The values that follow come from paper PMC10224356, “Trisubstituted 1,3,5-Triazines as Histamine H4 Receptor Antagonists with Promising Activity In Vivo” (Molecules, 2023).

Entries after “also recorded” stand apart in the source; their conditions may differ.

Data set [1] deals with T1, human histamine H4 receptor (Homo sapiens, UniProt Q9H3N8).
T1 construct: made in house; host or cells: Sf9 cells (membrane preparations)
Nature of the data set: [3H]histamine displacement assay, membranes of Sf9 cells expressing hH4R with Gαi2 and Gβ1γ2. The format is binding. The following applies: Sf9 membranes, mean within 95% CI. Here is the method:
The affinity of compounds 2–20 for hH4R was evaluated in a binding assay as previously described. [^3H]Histamine was used as a radioligand and hH4R was expressed in Sf9 cells with G protein Gαi2 and Gβ1γ2 subunits. The pharmacological results represented as Ki values are listed in Table 1 (for alicyclic derivatives) and Table 2 (for aliphatic derivatives). […] Results depended on the substituent in the four positions of a triazine (a main structure).
Affinities of all triazine derivatives were determined in a [^3H] histamine (f.c. 10 nM) displacement assay using membrane preparations from Sf9 cells expressing human H4R and co-expressed with Gαi2 and Gβ1γ2 subunits as described previously. Nonspecific binding was determined in the presence of unlabelled JNJ7777120 ([…]).

Data set [2] can be described thus: PAMPA assay (blood-brain barrier permeability). Format: in vitro ADME. The protocol:
This test is a popular method for estimating the possibility of crossing BBB through passive transport. […] Caffeine was used as a standard well-permeable compound.
The Gentest^TM PAMPA Plate System, purchased from Corning (Tewksbury, MA, USA), was used for permeability evaluation. Caffeine (a reference) and the compound tested were dissolved in DMSO (10 mM stocks) and after dilution to 200 μM in PBS (pH 7.4), added to donor wells. Then, after incubation for 5 h at room temperature, concentrations of tested compounds in donor and acceptor wells were estimated by the mass spectra (LC/MS) method as described previously. The UPLC/MS Waters […] TQD system with the TQ Detector (Waters, Milford, CT, USA) was used for this detection. The assay was performed in triplicate. The permeability value (Pe) was calculated using the formula described by Chen et al..
(In general: In PAMPA a lipid-coated filter parts donor from acceptor wells.)

The test system of another data set is HepG2 cells. Kind of data set: Toxicity evaluation, MTS assay in HepG2 cells. Format: cell-based, human. The source says: (§1) Toxic substances can affect the cells. Early in the research process, it is crucial to determine whether obtained compounds can induce such effects. From our series of compounds, compound 6 was selected for toxicity evaluation. MTS assay was used to test toxicity on HepG2 and SH-SY5Y cell lines. HepG2 cells closely reflect the human liver cell model whereas SH-SY5Y neuroblastoma cells are used in models of neurodegenerative diseases (especially Parkinson’s disease) to study the cellular and molecular factors that lead to these disorders.
(§2) Compound 6, at concentrations ranging from 0.78 µM to 50 µM, was incubated with the respective cell lines for 48 h (HepG2) or 24 h (SH-SY5Y). Then, MTS reagent was added and absorbances at 490 nm were read after 1 h. […] The reduction in SH-SY5Y cell viability (Figure 6B) of an average of 4–12% was observed over the range of concentrations.
The hepatoma cell line HepG2 (ATCC® HB-8065TM) and SH-SY5Y CRL-2266 neuroblastoma cell line were used to evaluate the toxicity of tested compounds. Tests were conducted as described previously. CellTiter 96® Aqueous Non-Radioactive Cell Proliferation Assay was purchased from Promega (Madison, WI, USA). Compounds were tested at 7 concentrations (0.78, 1.56, 3.125, 6.25, 12.5, 25 and 50 µM). Cell viability was determined after incubation with compounds for […]. […]
In general terms: Tetrazolium dyes change colour on reduction, which living cells bring about.

A further data set has as its system SH-SY5Y cells. Kind of data set: Toxicity evaluation, MTS assay in SH-SY5Y cells. The format is cell-based, human.
Source text: as §1, §2
The hepatoma cell line HepG2 (ATCC® HB-8065TM) and SH-SY5Y CRL-2266 neuroblastoma cell line were used to evaluate the toxicity of tested compounds. Tests were conducted as described previously. CellTiter 96® Aqueous Non-Radioactive Cell Proliferation Assay was purchased from Promega (Madison, WI, USA). Compounds were tested at 7 concentrations (0.78, 1.56, 3.125, 6.25, 12.5, 25 and 50 µM). Cell viability was determined after incubation with compounds for […]. Each experiment was performed twice in triplicate.

In the next data set the test system is mice. Kind of data set: Formalin test. The format is in vivo. The following applies: for Paw licking/biting, late phase of formalin test, % of the control group: 15–30 min after formalin. Here is the method:
The blockade of H4Rs expressed in inflammatory cells results in anti-inflammatory and analgesic effects. On the contrary, the activation of neuronal H4Rs leads to analgesia.
The procedure used was essentially the same as that described previously. […] The total time (in s) spent on licking the injected paw during periods of 0–5 min (early phase, neurogenic) and 15–30 min (late phase, inflammatory) was measured and was considered as an indicator of nociceptive behaviour. Before formalin injection different groups of mice were treated i.p. with vehicle (10 mL/kg, negative control) and the dose–response of the investigated compound.

In another data set the target is hH4R (Homo sapiens, UniProt Q9H3N8). Kind of data set: cAMP accumulation assay (LANCE Ultra cAMP, CHO-K1 cells stably expressing hH4R). Format: cell-based. More on the design: expressed in transfected cells. The protocol: Intrinsic activity via the Gα subunit was measured using a LANCE Ultra cAMP detection kit and CHO-K1 cells stably expressing hH4R. Adenyl cyclase was stimulated by forskolin (10 µM).
Intrinsic activity in G protein-dependent pathway was measured with homogenous TR-FRET immunoassay, using LANCE Ultra cAMP kit and CHO-K1 H4R cell line or γ-irradiated recombinant CHO-K1 H4R cells (all from PerkinElmer). […] If the CHO-K1 H4R cell line was used it had been cultivated in DMEM/F12 10% FBS 400 µg/mL geneticin and passaged three times a week. […] The antagonist activity was measured in a white, opaque, 384-well microplate (PerkinElmer) with a total volume of 20 µL. […] After incubation, 5 µL of europium chelate-labelled cAMP tracer and 5 µl of ULight-labelled anti-cAMP mAb working solutions were added, mixed and incubated for 1 h. TR-FRET signal was read using a microplate reader (PerkinElmer, Waltham, MA, USA).
On the technique in general: cAMP levels reflect the balance of adenylyl cyclase and phosphodiesterase activity.

The mark [3] stands for this setting: even at the highest concentration (50 µM).

Chain of hH4R (Q9H3N8 whole entry): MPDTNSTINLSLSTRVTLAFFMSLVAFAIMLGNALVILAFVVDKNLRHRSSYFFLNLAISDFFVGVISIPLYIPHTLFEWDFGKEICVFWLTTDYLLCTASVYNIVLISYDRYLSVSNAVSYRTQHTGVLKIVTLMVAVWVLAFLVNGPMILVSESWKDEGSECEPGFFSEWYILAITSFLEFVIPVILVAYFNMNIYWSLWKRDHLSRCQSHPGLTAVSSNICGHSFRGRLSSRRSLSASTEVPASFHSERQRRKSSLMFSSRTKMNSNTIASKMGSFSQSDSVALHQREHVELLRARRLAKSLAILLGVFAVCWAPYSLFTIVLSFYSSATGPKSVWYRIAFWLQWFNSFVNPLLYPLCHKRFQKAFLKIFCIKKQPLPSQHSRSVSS
T1 sequence (Q9H3N8 whole entry): as above

Consider `CN1CCN(c2nc(N)nc(CC3CCCC3)n2)CC1` [Compound 6, 4-(Cyclopentylmethyl)-6-(4-methylpiperazin-1-yl)-1,3,5-triazin-2-amine], for which, in data set [1], the Ki (usually a dissociation constant, usually derived from enzyme kinetics or from competition with a known ligand) turned out to be 63 nM. Also, the “Mass Retention (R)” value in data set [2] (200 µM, 5 h) is reported as 3.15%. Moreover, in data set [2] (PBS pH 7.4, permeable if Pe > 1.5 × 10^−6 cm/s, read-out: Pe (permeability coefficient) ± SD), the Papp at 5 h, 200 µM was 12.3 ± 0.31 ×10⁻⁶ cm/s. Further, in the data set on HepG2 cells (0.78–50 µM, 48 h incubation), the “Toxicity in HepG2 cells (MTS)” value is “no toxicity up to 50 µM; also recorded: did not show significant toxicity in the tested concentration range (except for 6.25 µM concentration)”. Also, the “Reduction of HepG2 cell viability” value in the data set on HepG2 cells (setting [3]) is listed as not above 50%. Moreover, in the data set with SH-SY5Y cells (0.78–50 µM), the “Reduction in SH-SY5Y cell viability, average over the range of concentrations” value is listed as 4–12%. Moreover, the “Toxicity in SH-SY5Y cells (MTS)” value with SH-SY5Y cells (0.78–50 µM, 24 h incubation) was “no toxicity up to 50 µM”. In addition, the “Reduction of SH-SY5Y cell viability” value in the data set on SH-SY5Y cells (setting [3]) is not above 50%. Further, the “Paw licking/biting, late phase of formalin test, % of the control group” value is listed as 44.02 % of the control group in the data set with mice (50 mg/kg i.p.) and 56.62 % of the control group in the data set with mice (75 mg/kg i.p.). The “Duration of nociceptive response, acute phase of formalin test” value with mice (i.p., 0–5 min after formalin) is “did not significantly affect”. Further, the IC50 (usually the concentration at which inhibition is half-maximal) at hH4R (antagonist mode, forskolin 10 µM, histamine 140 nM, CHO-K1 hH4R cells, read-out: cAMP hH4R IC50 ± SEM) is 10 ± 2 nM. Also, the Kb on hH4R (calculated from IC50 by Leff–Dougall variant of Cheng–Prusoff equation, read-out: pKb cAMP ± SEM (converted)) is 3.55 nM.
